Measurements as given in patent US8497281B2, “Aryl- and heteroarylcarbonyl derivatives of hexahydroindenopyridine and octahydrobenzoquinoline” (Vitae Pharmaceuticals, Inc., priority 2009, dated 2013).

Assay: Metabolic stability in pooled liver microsomes
Assay type: in vitro ADME, human
Conditions: human liver microsomes, 37° C., test compound 1 μM, microsomal protein 0.5 mg/mL, NADPH 1 mM
Description: The metabolic degradation of the test compound is assayed at 37° C. with pooled liver microsomes from various species. The final incubation volume of 100 μl per time point contains TRIS buffer pH 7.6 at room temperature (0.1 M), magnesium chloride (5 mM), microsomal protein (0.5 mg/mL) and the test compound at a final concentration of 1 μM. Following a short preincubation period at 37° C., the reactions are initiated by addition of beta-nicotinamide adenine dinucleotide phosphate, reduced form (NADPH, 1 mM), and terminated by transferring an aliquot into solvent after different time points. After centrifugation (10000 g, 5 min), an aliquot of the supernatant is assayed by LC-MS/MS for the amount of parent compound. The half-life is determined by the slope of the semi-logarithmic plot of the concentration-time profile.

Stability in human liver microsomes, t1/2 [h]	SMILES
0.483	O=C(c1ccc2[nH]cnc2c1)N1CCC[C@@H]2c3ccccc3CC[C@@H]21 [Example 2, (1H-Benzoimidazol-5-yl)-[(4a-S,10b-R)-2,3,4a,5,6,10b-hexahydro-1H-benzo[l]quinolin-4-yl]-methanone]
>1.5	O=C(c1ccc2[nH]cnc2c1)N1CCC[C@@H]2c3ccccc3CC[C@@H]21 (relative stereo) [Example 1, (1H-Benzoimidazol-5-yl)-(cis-2,3,4a,5,6,10b-hexahydro-1H-benzo[f]quinolin-4-yl)-methanone]

Same assay, conditions: human, pooled liver microsomes, pH 7.6, human liver microsomes, 37° C., test compound 1 μM, microsomal protein 0.5 mg/mL, NADPH 1 mM; read-out: Stability in human liver microsomes, t1/2

SMILES	half-life at 1 μM [h]
CC[C@]12CCCN(C(=O)c3ccc4[nH]cnc4c3)[C@@H]1CCc1ccccc12 (relative stereo) [Example 105, (1H-Benzoimidazol-5-yl)-(trans-10b-ethyl-2,3,4a,5,6,10b-hexahydro-1H-benzo[f]quinolin-4-yl)-methanone]	0.367
C[C@H]1CCN(C(=O)c2ccc3[nH]cnc3c2)[C@H]2Cc3ccccc3[C@@H]12 [Example 146, (1H-Benzoimidazol-5-yl)-(cis-4-methyl-2,3,4,4a,9,9a-hexahydro-indeno[2,1-b]pyridin-1-yl)-methanone]	> 0.75
O=C(c1ccc2[nH]cnc2c1)N1CCC[C@@H]2c3ccccc3C[C@@H]21 (relative stereo) [Example 93, (1H-Benzoimidazol-5-yl)-(cis-2,3,4,4a,9,9a-hexahydro-indeno[2,1-b]pyridin-1-yl)-methanone]	> 1.5
C[C@]12CCCN(C(=O)c3ccc4[nH]cnc4c3)[C@@H]1CCc1ccccc12 (relative stereo) [Example 11, (1H-Benzoimidazol-5-yl)-(trans-10b-methyl-2,3,4a,5,6,10b-hexahydro-1H-benzo[t]quinolin-4-yl)-methanone]	0.633
O=C(c1ccc2[nH]cnc2c1)N1CCC[C@@H]2c3cc(F)cc(F)c3CC[C@@H]21 (relative stereo) [Example 20, (1H-Benzoimidazol-5-yl)-(cis-7,9-difluoro-2,3,4a,5,6,10b-hexahydro-1H-benzo[f]quinolin-4-yl)-methanone]	> 1.5
Cc1cc(C(=O)N2CCC[C@@H]3c4cc(C#N)ccc4C[C@@H]32)cc2nc[nH]c12 [Example 152, (4a-R,9a-S)-1-(7-Methyl-1H-benzoimidazole-5-carbonyl)-2,3,4,4a,9,9a-hexahydro-1H-indeno[2,1-b]pyridine-6-carbonitrile]	> 1.5
C[C@]12CCCN(C(=O)c3ccc4[nH]cnc4c3)[C@H]1CCc1ccccc12 (relative stereo) [Example 10, (1H-Benzoimidazol-5-yl)-(cis-10b-methyl-2,3,4a,5,6,10b-hexahydro-1H-benzo[f]quinolin-4-yl)-methanone]	> 0.75
NC(=O)c1ccc2c(c1)CC[C@H]1[C@@H]2CCCN1C(=O)c1ccc2[nH]cnc2c1 (relative stereo) [Example 37, cis-4-(1H-Benzoimidazole-5-carbonyl)-1,2,3,4,4a,5,6,10b-octahydro-benzo[f]quinoline-8-carboxylic acid amide]	> 1.5

Now from value to molecule:

half-life at 1 μM [h]	SMILES
> 1.5	N#Cc1ccc2c(c1)[C@H]1CCCN(C(=O)c3ccc4[nH]cnc4c3)[C@H]1C2 (relative stereo) [Example 106, cis-1-(1H-Benzoimidazole-5-carbonyl)-2,3,4,4a,9,9a-hexahydro-1H-indeno[2,1-b]pyridine-6-carbonitrile]
> 1.5	N#Cc1ccc2c(c1)C[C@H]1[C@@H]2CCCN1C(=O)c1ccc2[nH]cnc2c1 [Example 148, (4a-R,9a-S)-1-(1H-Benzoimidazole-5-carbonyl)-2,3,4,4a,9,9a-hexahydro-1H-indeno[2,1-b]pyridine-7-carbonitrile]
0.467	C#Cc1ccc2c(c1)[C@H]1CCCN(C(=O)c3ccc4[nH]cnc4c3)[C@H]1C2 (relative stereo) [Example 155, (1H-Benzoimidazol-5-yl)-(cis-6-ethynyl-2,3,4,4a,9,9a-hexahydro-indeno[2,1-b]pyridin-1-yl)-methanone]
> 1.5	N#Cc1ccc2c(c1)[C@@H]1CCCN(C(=O)c3ccc4[nH]cnc4c3)[C@@H]1C2 [Example 108, (4a-S,9a-R)-1-(1H-Benzoimidazole-5-carbonyl)-2,3,4,4a,9,9a-hexahydro-1H-indeno[2,1-b]pyridine-6-carbonitrile]
> 1.5	N#Cc1ccc2c(c1)CC[C@H]1[C@@H]2CCCN1C(=O)c1ccc2[nH]cnc2c1 (relative stereo) [Example 42, cis-4-(1H-Benzoimidazole-5-carbonyl)-1,2,3,4,4a,5,6,10b-octahydro-benzo[f]quinoline-8-carbonitrile]
> 1.5	Cc1cc2[nH]cnc2cc1C(=O)N1CCC[C@@H]2c3cc(C#N)ccc3C[C@@H]21 [Example 153, (4a-R,9a-S)-1-(6-Methyl-1H-benzoimidazole-5-carbonyl)-2,3,4,4a,9,9a-hexahydro-1H-indeno[2,1-b]pyridine-6-carbonitrile]
> 1.5	N#Cc1ccc2c(c1)[C@H]1CCCN(C(=O)c3ccc4[nH]cnc4c3)[C@H]1CC2 (relative stereo) [Example 91, cis-4-(1H-Benzoimidazole-5-carbonyl)-1,2,3,4,4a,5,6,10b-octahydro-benzo[f]quinoline-9-carbonitrile]
> 1.5	N#Cc1ccc2c(c1)[C@H]1CCCN(C(=O)c3ccc4[nH]cnc4c3)[C@H]1C2 [Example 107, (4a-R,9a-S)-1-(1H-Benzoimidazole-5-carbonyl)-2,3,4,4a,9,9a-hexahydro-1H-indeno[2,1-b]pyridine-6-carbonitrile]
